From publication PMC9069992 (Journal of the American Chemical Society, 2022)

Experiments:
[1] = Critical micelle concentration; format: physicochemical; details: Figure 1C
GA of HeLa cells = test: CLSM / single cell imaging of fluorescence accumulation at Golgi apparatus; format: cell-based, Homo sapiens; details: for accumulation at / targeting of GA (in words): CLSM, fluorescence at GA, Figures S16, S30A, S33, S35-S44; for effect of thioesterase inhibitor on GA accumulation of C6-NBD-Ceramide: Figures S11, S12; for effect of thioesterase inhibitor on accumulation of 1 at GA: by itself or in combination, Figures S4, S9, S10
TEM of self-assembly = format: physicochemical; details: 20 μM, Figure S43
carboxylesterase (CES1) = target: T1, carboxylesterase (CES1) (Homo sapiens, UniProt P23141); test: Cell free hydrolysis by carboxylesterase; format: biochemical; details: cell free assay, Figure S13
T1 sequence (P23141 18-567): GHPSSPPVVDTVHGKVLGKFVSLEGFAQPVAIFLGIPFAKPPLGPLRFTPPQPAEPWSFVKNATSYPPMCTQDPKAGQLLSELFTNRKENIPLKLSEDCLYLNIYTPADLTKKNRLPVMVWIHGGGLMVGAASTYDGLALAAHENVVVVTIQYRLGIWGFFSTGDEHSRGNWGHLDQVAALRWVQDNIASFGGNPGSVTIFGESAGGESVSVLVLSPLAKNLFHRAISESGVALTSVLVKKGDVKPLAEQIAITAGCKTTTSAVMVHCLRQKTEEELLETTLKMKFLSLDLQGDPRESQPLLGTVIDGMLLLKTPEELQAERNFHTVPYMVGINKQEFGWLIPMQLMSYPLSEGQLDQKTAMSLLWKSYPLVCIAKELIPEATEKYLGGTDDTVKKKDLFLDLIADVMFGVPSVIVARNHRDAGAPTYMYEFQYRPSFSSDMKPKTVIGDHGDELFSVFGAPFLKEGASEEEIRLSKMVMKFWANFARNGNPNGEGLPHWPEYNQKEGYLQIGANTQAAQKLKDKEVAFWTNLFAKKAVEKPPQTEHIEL

NRAS = test: ICC staining of NRAS distribution in MCF-7 cells; format: cell-based, Homo sapiens; details: MCF-7, 10 μM, 30 min, ICC staining with NRAS antibody, Figure 3C
[2] = test system: GA of HeLa, Saos-2, HEK293, MCF-7, HS-5, SJSA-1, HepG2, B16F10, S2 cells; test: CLSM of GA targeting in various cell lines; format: cell-based, Homo sapiens, Mus musculus, Drosophila; details: 10 μM, 8 min, Figure 2B
[3] = test system: neutrophils (polymorphonuclear leukocytes); test: GA localization in primary cells; format: cell-based; details: Figure S24

SMILES: CC(=O)SCCNC(=O)[C@@H](Cc1ccccc1)NC(=O)[C@@H](Cc1ccccc1)NC(=O)CCNc1ccc([N+](=O)[O-])c2nonc12 [compound 1]
- critical micelle concentration (CMC) [1]: 2.1 µM
- accumulation at / targeting of GA (in words) (GA of HeLa cells): accumulates primarily at GA
- time after addition until GA becomes distinguishable (GA of HeLa cells; Figures S1, S2, video S1): less than 1 min
- dependence on clathrin-mediated endocytosis at 2 μM (GA of HeLa cells; HeLa treated with chlorpromazine, 2 μM of 1, Figure S8): hardly
- dependence on clathrin-mediated endocytosis at 10 μM (GA of HeLa cells; HeLa treated with chlorpromazine, 10 μM of 1, Figure S8): only slightly
- time until fluorescence plateaus outside GA (GA of HeLa cells; HeLa, 10 μM, 60 min, single cell imaging analysis, Figure 1B): > 45 min
- enhancement of fluorescence intensity at GA from 1 minute to 8 minutes (GA of HeLa cells; HeLa, Figure S15): at least 3 times
- self-assembly seen by TEM (in words) (TEM of self-assembly): self-assembles into nanoparticles and nanofibers
- hydrolysis by carboxylesterase (CES1) (in words) (carboxylesterase (CES1)): able to catalyze the hydrolysis of 1
- intracellular distribution of NRAS after pretreatment (in words) (NRAS): relocates from mainly plasma membrane to overwhelmingly GA
- targeting GA of various cells (in words) [2]: able to target GA of various cells from different organisms
- entry into primary cells and localization (in words) [3]: localizes at GA

SMILES: CCCCCCCCCCCCC/C=C/[C@@H](O)[C@H](CO)NC(=O)CCCCCNc1ccc([N+](=O)[O-])c2nonc12 [C6-NBD-ceramide, C6-NBD-Ceramide, reference compound]
- accumulation at / targeting of GA (in words) (GA of HeLa cells): shows dim fluorescence over 16 minutes

SMILES: CC(C)(C)C1CCN(C(=O)n2ncc(C(O)(c3ccccc3)c3ccccc3)n2)CC1 [ML211, reference compound]
- effect of thioesterase inhibitor on GA accumulation of C6-NBD-Ceramide (GA of HeLa cells): cannot block the GA accumulation
- effect of thioesterase inhibitor on accumulation of 1 at GA (GA of HeLa cells): efficiently block 1 accumulating at GA

SMILES: CN(CCCCCCNc1ccnc2cc(Cl)ccc12)CCCCCCNc1ccnc2cc(Cl)ccc12 [DC661, reference compound]
- effect of thioesterase inhibitor on GA accumulation of C6-NBD-Ceramide (GA of HeLa cells): cannot block the GA accumulation
- effect of thioesterase inhibitor on accumulation of 1 at GA (GA of HeLa cells): efficiently block 1 accumulating at GA
